For one compound, solubility results are on record in publication PMC11676886 (Pharmaceutics, 2024).

Converted amounts (≈) assume the structure as drawn.

A short description of one series: physchem. In kind it is physicochemical.
On the set-up of series [1]: method as in doi:10.1016/j.jddst.2024.105605. The following applies: 4% (w/v) polysorbate 20; cited from earlier work.

Method for physchem: The mobile phase consisted of 50% acetonitrile and 50% purified water with a flow rate set to 1 mL/min and a column temperature set to 30 °C. The injection volume was 20 µL analyzed at a wavelength set to 230 nm for all analytical measurements.
Samples were prepared by the shake-flask method in glass vials containing 2 mg drug compound and 1 mL dispersion medium consisting of either buffer solutions (50 mM acetate buffer, pH 4.0 or 50 mM citric buffer, pH 3.0) or stabilizer solutions containing 1%, 2%, or 3% polysorbate 20 or vitamin E TPGS dissolved in the buffer solutions. The samples were rotated for 24 h at 40 rpm on a Multi-Rotator (PTR-60, Grant-Bio, Grant Instruments, Cambridgeshire, UK) while stored at 40 °C and protected from light. Samples were prepared in triplicate (n = 3). After equilibration, the samples were filtered with a 0.22 µm hydrophobic polytetrafluoroethylene membrane (VWR International, LLC, Radnor, PA, USA) with sampling tools equilibrated to 40 °C while the clear supernatant was diluted to an appropriate concentration with the mobile phase (50:50 acetonitrile and purified water) and analyzed by the method described above.

For `COc1ccc2c(c1)c(CC(=O)O)c(C)n2C(=O)c1ccc(Cl)cc1` [indomethacin], the solubility at 24 h in “physchem” (40 °C, pH 3, aqueous buffer, thermodynamic from solid) worked out at 2 µg/mL (≈ 5.59 µM); in “physchem” (40 °C, pH 4, aqueous buffer, thermodynamic from solid), 3 µg/mL (≈ 8.38 µM); in the series “physchem” (pH 4), 640 µg/mL (≈ 1790 µM). Moreover, in series [1], the solubility result is “approximately 0.70 mg/mL”.

In general, solubility refers to how much of the substance goes into solution per volume.
